Data set [1] is classed as in vivo. The conditions noted are these: male rats, once daily by gavage for three days, diclofenac 10 mg/kg, compound of example 5 14 mg/kg. The procedure: Thirty male rats (150-200 g) were divided into three groups of 10 animals/group and treated with vehicle, diclofenac (10 mg/kg) and the compound of example 5 (14 mg/kg) for three days once daily by gavage. The vehicle consisted in 1 mL of 0.5% carboxymethylcellulose (CMC). At the fifth day, survival animals were sacrificed, by an overdose of ether, and autopsied to detect any pathological changes, particularly in the gastrointestinal tract. Prostaglandin E2 was evaluated in the liver homogenate by standard enzyme immunoassay procedure as described by Warner T D et al. (J.P.E.T. 2004, 310, 642-7).

For a further data set, the system named is superoxide formation. The data set can be described thus: Superoxide formation by cultured pulmonary endothelial cells. Type of data set: cell-based, porcine. The text has this: (§1) Effects of the compound prepared in example 4 on superoxide formation, gp91^phox expression by porcine cultured pulmonary endothelial cells and intact cavernosal tissue were studied according to Muzzaffar S. et al. (Br. J. Pharmacol. 2005 September; 146(1):109-17).

The subject of a further data set is gp91^phox. The data set can be described thus: gp91phox expression by cultured pulmonary endothelial cells. Particulars: 16 hr incubation of pig pulmonary artery cells with TNFα. Type of data set: cell-based, porcine.
From the text: as §1

Data set [2] deals with DU-145. The data set can be described thus: Growth and adhesion to endothelial cells of DU-145 prostate tumour cells in vitro. The format is cell-based. The procedure: (§2) The compound described in example 6 has been tested in vitro on 2 prostate tumour cells (DU-145 and PC-3). […] The activity reported in the literature for the parent compound (valproic acid) on the same tumour cells is achieved at much higher concentrations (1 mM). (Engl. T et al. Life Sciences, 2005).

The subject of data set [3] is PC-3. The data set can be described thus: Growth and adhesion to endothelial cells of PC-3 prostate tumour cells in vitro. The format is cell-based. The procedure: as §2
For data set [4], the system named is PC-3. The conditions noted are these: PC-3 prostate tumour cells; Engl T. et al., Life Sciences 2005; cited from earlier work.
The test system of data set [5] is DU-145. Particulars: DU-145 prostate tumour cells; Engl T. et al., Life Sciences 2005; cited from earlier work.

Consider `O=C(O)Cc1ccccc1Nc1c(Cl)cccc1Cl` [Diclofenac, diclofenac, reference compound], for which, in data set [1] (10 animals/group), the “% deaths” value came to 40%.
On to `CCCc1nn(C)c2c(=O)[nH]c(-c3cc(S(=O)(=O)N4CCN(CC(=O)OCCSS(C)(=O)=O)CC4)ccc3OCC)nc12` [Example 4, {4-[4-ethoxy-3-(1-methyl-7-oxo-3-propyl-6,7-dihydro-1H-pyrazolo[4,3-d]pyrimidin-5-yl)-benzenesulfonyl]-piperazin-1-yl}-acetic acid 2-methanesulfonylsulfanyl-ethyl ester], for which the “inhibition of superoxide formation” value in the data set on superoxide formation (16 hr incubation of pig pulmonary artery cells with TNFα) and in the data set with superoxide formation (16 hr incubation of pig pulmonary artery cells with thromboxane A2 analogue U46619) was “potent inhibitor” in each case. The “concentration reducing superoxide formation compared with sildenafil citrate” value with superoxide formation (response to inflammatory mediators) is recorded as “lower concentrations than sildenafil citrate”. Moreover, the “inhibition of gp91phox expression” value with gp91^phox was “inhibited”.
On to `CS(=O)(=O)SCCOC(=O)Cc1cccc(Nc2c(Cl)cccc2Cl)c1` [Example 5, [3-(2,6-dichloro-phenylamino)-phenyl]-acetic acid 2-methanesulfonylsulfanyl-ethyl ester], for which the “% gastrointestinal ulcer” value in data set [1] (autopsy at fifth day) is given as 10%.
With `CCCC(CCC)C(=O)OCCSS(C)(=O)=O` [Example 6, 2-propyl-pentanoic acid 2-methanesulfonylsulfanyl-ethyl ester], in the data set with DU-145 [2], the “concentration range inhibiting adhesion to endothelial cells” value lay within 5 to 30 µM and the “concentration range inhibiting growth” value fell in the range of 5 to 30 µM. Besides, in the data set with PC-3 [3], the “concentration range inhibiting adhesion to endothelial cells” value was in the range of 5 to 30 µM and the “concentration range inhibiting growth” value was in the range of 5 to 30 µM.
In the case of `CCCC(CCC)C(=O)O` [valproic acid], the “concentration at which activity is achieved (literature)” value in the data set with PC-3 [4] and in the data set with DU-145 [5] was 1 mM throughout.
